Measured values published in ChEMBL document CHEMBL4400547 (J Med Chem, 2019).
In brackets after ≈: the same amount, converted by molar mass. Activity calls are given as the source filed them. The rule behind the calls is not given here.

What was measured:
physchem = conditions: buffer
Description: Aqueous kinetic solubility of the compound

[1] = biological target: T1, Serine/threonine-protein kinase/endoribonuclease IRE1 (Homo sapiens, UniProt O75460); assay: Displacement for LanthaScreen tracer from dephosphorylated IRE1alpha (G547 to L977 residues) (unknown origin) ATP binding site […] after 60 mins by FRET assay
Target sequence in this assay (O75460 whole entry, the tested form may be a part): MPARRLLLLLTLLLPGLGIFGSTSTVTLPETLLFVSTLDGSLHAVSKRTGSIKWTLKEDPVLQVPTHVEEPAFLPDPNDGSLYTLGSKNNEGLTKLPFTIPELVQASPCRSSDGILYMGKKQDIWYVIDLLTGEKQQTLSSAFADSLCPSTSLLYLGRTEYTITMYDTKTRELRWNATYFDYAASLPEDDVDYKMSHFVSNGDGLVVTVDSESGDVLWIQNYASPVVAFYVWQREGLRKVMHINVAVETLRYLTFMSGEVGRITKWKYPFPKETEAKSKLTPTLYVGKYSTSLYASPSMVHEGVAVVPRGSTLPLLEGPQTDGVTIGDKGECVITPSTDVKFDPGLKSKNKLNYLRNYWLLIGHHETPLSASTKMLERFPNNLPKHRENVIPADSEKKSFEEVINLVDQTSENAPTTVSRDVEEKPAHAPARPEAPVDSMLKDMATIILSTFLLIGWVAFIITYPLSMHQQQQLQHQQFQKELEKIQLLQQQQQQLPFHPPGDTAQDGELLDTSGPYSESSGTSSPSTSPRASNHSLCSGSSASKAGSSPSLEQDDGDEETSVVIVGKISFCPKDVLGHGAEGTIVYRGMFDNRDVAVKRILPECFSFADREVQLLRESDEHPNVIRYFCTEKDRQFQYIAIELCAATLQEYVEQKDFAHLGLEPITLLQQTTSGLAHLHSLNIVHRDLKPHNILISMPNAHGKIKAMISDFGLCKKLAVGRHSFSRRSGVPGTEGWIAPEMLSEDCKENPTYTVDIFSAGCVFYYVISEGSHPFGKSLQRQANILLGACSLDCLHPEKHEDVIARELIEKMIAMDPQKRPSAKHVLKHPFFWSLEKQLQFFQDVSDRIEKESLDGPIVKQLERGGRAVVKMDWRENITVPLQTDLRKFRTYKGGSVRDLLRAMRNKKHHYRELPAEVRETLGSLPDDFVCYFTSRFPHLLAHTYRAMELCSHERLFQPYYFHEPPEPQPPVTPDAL

[2] = biological target: T1, Serine/threonine-protein kinase/endoribonuclease IRE1; assay: Inhibition of dephosphorylated IRE1alpha (G547 to L977 residues) (unknown origin) autophosphorylation at S724 after 25 mins in presence of ATP by dissociation-enhanced lanthanide fluorescence immunoassay
Target sequence in this assay (O75460 whole entry, the tested form may be a part): as above

[3] = Distribution coefficient, log D of the compound at pH 7.4; assay type: physicochemical; conditions: octanol/water
[4] = biological target: Myosin light chain kinase, smooth muscle (Homo sapiens) (UniProt Q15746); assay: Inhibition of recombinant human GST-tagged MLCK expressed in baculovirus expression system at 1 uM by kinomescan assay relative to control
[5] = biological target: Homeodomain-interacting protein kinase 2 (Homo sapiens) (UniProt Q9H2X6); assay: Inhibition of recombinant human N-terminal GST-tagged HIPK2 expressed in baculovirus expression system at 1 uM by kinomescan assay relative to control
[6] = biological target: Dual specificity protein kinase CLK1 (Homo sapiens) (UniProt P49759); assay: Inhibition of recombinant human GST-tagged CLK1 expressed in Escherichia coli at 1 uM by kinomescan assay relative to control
[7] = biological target: Dual specificity tyrosine-phosphorylation-regulated kinase 1A (Homo sapiens) (UniProt Q13627); assay: Inhibition of recombinant full length human GST-tagged DYRK1A expressed in baculovirus expression system at 1 uM by kinomescan assay relative to control
[8] = biological target: Mast/stem cell growth factor receptor Kit (Homo sapiens) (UniProt P10721); assay: Inhibition of recombinant human His-tagged KIT expressed in baculovirus expression system at 1 uM by kinomescan assay relative to control
[9] = biological target: Receptor-type tyrosine-protein kinase FLT3 (Homo sapiens) (UniProt P36888); assay: Inhibition of auto-inhibited recombinant human His-tagged FLT3 expressed in baculovirus expression system at 1 uM by kinomescan assay relative to control
[10] = system: Mast/stem cell growth factor receptor Kit (Homo sapiens), P10721 [L576P]; assay: Inhibition of recombinant human His-tagged KIT L576P mutant expressed in baculovirus expression system at 1 uM by kinomescan assay relative to control
Chain of Mast/stem cell growth factor receptor Kit (Homo sapiens), P10721 [L576P] (P10721 whole entry L576P): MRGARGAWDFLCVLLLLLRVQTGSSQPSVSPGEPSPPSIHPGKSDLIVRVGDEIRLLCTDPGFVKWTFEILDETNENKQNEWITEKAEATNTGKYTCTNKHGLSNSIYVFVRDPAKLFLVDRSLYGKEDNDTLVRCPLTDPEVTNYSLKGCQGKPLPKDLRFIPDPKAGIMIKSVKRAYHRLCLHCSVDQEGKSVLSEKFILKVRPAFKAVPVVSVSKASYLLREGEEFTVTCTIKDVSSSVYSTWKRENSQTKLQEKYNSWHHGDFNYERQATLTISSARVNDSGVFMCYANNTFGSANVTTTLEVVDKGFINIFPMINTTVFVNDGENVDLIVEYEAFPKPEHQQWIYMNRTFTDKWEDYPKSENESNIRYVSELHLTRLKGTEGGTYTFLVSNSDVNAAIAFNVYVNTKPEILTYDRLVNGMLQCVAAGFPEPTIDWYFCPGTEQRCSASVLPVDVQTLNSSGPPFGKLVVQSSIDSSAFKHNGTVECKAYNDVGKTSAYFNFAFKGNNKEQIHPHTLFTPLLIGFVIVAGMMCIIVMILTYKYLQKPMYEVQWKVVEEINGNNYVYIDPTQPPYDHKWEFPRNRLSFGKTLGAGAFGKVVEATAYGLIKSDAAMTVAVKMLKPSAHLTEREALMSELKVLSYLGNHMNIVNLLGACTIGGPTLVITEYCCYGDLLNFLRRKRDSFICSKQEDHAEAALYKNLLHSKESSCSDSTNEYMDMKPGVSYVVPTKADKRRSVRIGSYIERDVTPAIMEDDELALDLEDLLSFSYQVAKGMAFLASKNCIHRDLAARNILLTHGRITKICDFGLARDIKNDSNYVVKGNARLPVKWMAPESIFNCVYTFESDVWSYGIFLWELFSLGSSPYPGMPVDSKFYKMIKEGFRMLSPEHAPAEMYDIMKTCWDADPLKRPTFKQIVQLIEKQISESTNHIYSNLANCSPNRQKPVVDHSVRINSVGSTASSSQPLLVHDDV

Homo sapiens = organism: Homo sapiens; assay: Inhibition of recombinant human His-tagged FLT3 ITD/D835V double mutant expressed in baculovirus expression system at 1 uM by kinomescan assay relative to control
[11] = system: Mast/stem cell growth factor receptor Kit (Homo sapiens), P10721 [V559D,V654A]; assay: Inhibition of recombinant human His-tagged KIT V559D/V654A double mutant expressed in baculovirus expression system at 1 uM by kinomescan assay relative to control
[12] = system: Tyrosine-protein kinase ABL1 (Homo sapiens), P00519 [F317I]; assay: Inhibition of phosphorylated recombinant human His-tagged ABL1 F317I mutant expressed in baculovirus expression system at 1 uM by kinomescan assay relative to control
[13] = biological target: T1, Serine/threonine-protein kinase/endoribonuclease IRE1; assay: Inhibition of thapsigargin-induced IRE1alpha (unknown origin) expressed in HEK293 cells assessed as reduction in IRE1alpha-dependent splicing of XBP1u-luciferase mRNA by luciferase reporter gene assay; assay type: cell-based
Target sequence in this assay (O75460 whole entry, the tested form may be a part): as the sequence (O75460 whole entry, the tested form may be a part) above

[14] = system: Tyrosine-protein kinase ABL1 (Homo sapiens), P00519 [F317L]; assay: Inhibition of phosphorylated recombinant human His-tagged ABL1 F317L mutant expressed in baculovirus expression system at 1 uM by kinomescan assay relative to control
[15] = system: Receptor-type tyrosine-protein kinase FLT3 (Homo sapiens), P36888 [D835V]; assay: Inhibition of recombinant human His-tagged FLT3 D835V mutant expressed in baculovirus expression system at 1 uM by kinomescan assay relative to control
[16] = system: Mast/stem cell growth factor receptor Kit (Homo sapiens), P10721 [V559D,T670I]; assay: Inhibition of recombinant human His-tagged KIT V559D/T670I double mutant expressed in baculovirus expression system at 1 uM by kinomescan assay relative to control
[17] = biological target: Cyclin-G-associated kinase (Homo sapiens) (UniProt O14976); assay: Inhibition of recombinant human GST-tagged GAK (1 to 396 residues) expressed in insect cell expression system at 1 uM by kinomescan assay relative to control
[18] = system: Receptor-type tyrosine-protein kinase FLT3 (Homo sapiens), P36888 [N841I]; assay: Inhibition of recombinant human His-tagged FLT3 […] mutant expressed in baculovirus expression system at 1 uM by kinomescan assay relative to control
[19] = biological target: T1, Serine/threonine-protein kinase/endoribonuclease IRE1; assay: Inhibition of tunicamycin-induced GFP-fused IRE1alpha (unknown origin) oligomerization expressed in HEK293 cells assessed as reduction in fluorescent foci formation after 5 hrs by fluorescence based assay; assay type: cell-based
Target sequence in this assay (O75460 whole entry, the tested form may be a part): as above

[20] = biological target: T1, Serine/threonine-protein kinase/endoribonuclease IRE1; assay: Inhibition of tunicamycin-induced IRE1alpha-dependent splicing of XBP1s-mRNA transcription in human H929 cells assessed as reduction in […] mRNA expression in at 0.5 to 10 uM by RT-qPCR analysis; assay type: cell-based
[21] = biological target: Receptor-type tyrosine-protein kinase FLT3 (Homo sapiens) (UniProt P36888); assay: Inhibition of recombinant human His-tagged FLT3 expressed in baculovirus expression system at 1 uM by kinomescan assay relative to control
[22] = system: Receptor-type tyrosine-protein kinase FLT3 (Homo sapiens), P36888 [R834Q]; assay: Inhibition of recombinant human His-tagged FLT3 R834Q mutant expressed in baculovirus expression system at 1 uM by kinomescan assay relative to control
[23] = biological target: Dual specificity protein kinase CLK4 (Homo sapiens) (UniProt Q9HAZ1); assay: Inhibition of recombinant full length human GST-tagged CLK4 expressed in baculovirus expression system at 1 uM by kinomescan assay relative to control
Chain of Dual specificity protein kinase CLK4 (Homo sapiens) (Q9HAZ1 whole entry, looked up): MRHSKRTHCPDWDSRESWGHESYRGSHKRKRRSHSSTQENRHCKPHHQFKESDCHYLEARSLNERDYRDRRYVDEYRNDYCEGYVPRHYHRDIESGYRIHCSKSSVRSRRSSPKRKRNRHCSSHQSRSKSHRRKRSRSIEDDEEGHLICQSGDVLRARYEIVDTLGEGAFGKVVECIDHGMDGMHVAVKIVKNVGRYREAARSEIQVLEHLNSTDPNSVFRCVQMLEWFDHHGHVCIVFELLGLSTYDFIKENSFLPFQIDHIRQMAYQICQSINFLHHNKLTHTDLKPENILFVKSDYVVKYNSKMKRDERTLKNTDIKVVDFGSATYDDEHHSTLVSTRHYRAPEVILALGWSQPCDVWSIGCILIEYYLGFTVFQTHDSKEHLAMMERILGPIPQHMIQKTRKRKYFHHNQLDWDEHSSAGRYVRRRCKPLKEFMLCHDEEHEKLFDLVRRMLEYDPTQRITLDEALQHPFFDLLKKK

[24] = system: Receptor-type tyrosine-protein kinase FLT3 (Homo sapiens), P36888 [UNDEFINED MUTATION]; assay: Inhibition of recombinant human His-tagged FLT3 ITD mutant expressed in baculovirus expression system at 1 uM by kinomescan assay relative to control
[25] = biological target: Dual specificity tyrosine-phosphorylation-regulated kinase 1B (Homo sapiens) (UniProt Q9Y463); assay: Inhibition of recombinant full length human GST-tagged DYRK1B expressed in baculovirus expression system at 1 uM by kinomescan assay relative to control
Chain of Dual specificity tyrosine-phosphorylation-regulated kinase 1B (Homo sapiens) (Q9Y463 whole entry, looked up): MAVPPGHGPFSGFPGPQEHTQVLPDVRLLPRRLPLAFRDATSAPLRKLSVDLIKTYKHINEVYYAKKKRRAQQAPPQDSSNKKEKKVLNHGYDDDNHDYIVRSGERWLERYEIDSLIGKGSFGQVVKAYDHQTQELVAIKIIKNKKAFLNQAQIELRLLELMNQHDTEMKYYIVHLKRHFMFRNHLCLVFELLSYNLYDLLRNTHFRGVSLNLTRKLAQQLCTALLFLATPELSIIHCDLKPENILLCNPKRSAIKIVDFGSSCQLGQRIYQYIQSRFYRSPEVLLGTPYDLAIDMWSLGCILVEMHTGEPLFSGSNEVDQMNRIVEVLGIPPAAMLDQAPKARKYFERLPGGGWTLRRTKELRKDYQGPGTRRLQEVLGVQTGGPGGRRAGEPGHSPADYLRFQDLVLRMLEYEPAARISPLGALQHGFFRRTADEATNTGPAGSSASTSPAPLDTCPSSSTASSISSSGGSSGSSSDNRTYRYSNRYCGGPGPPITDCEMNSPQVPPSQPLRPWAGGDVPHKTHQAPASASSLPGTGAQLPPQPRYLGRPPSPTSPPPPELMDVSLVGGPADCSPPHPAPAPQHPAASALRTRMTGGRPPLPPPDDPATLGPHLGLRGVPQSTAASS

[26] = biological target: T1, Serine/threonine-protein kinase/endoribonuclease IRE1; assay: Inhibition of tunicamycin-induced IRE1alpha (unknown origin) expressed in HEK293 cells assessed as reduction in IRE1alpha-dependent splicing of XBP1u-luciferase mRNA by luciferase reporter gene assay; assay type: cell-based
Target sequence in this assay (O75460 whole entry, the tested form may be a part): as the sequence (O75460 whole entry, the tested form may be a part) above

HEK293 = assay: cells; conditions: Homo sapiens
Description: Cytotoxicity against HEK293 cells co-expressing XBP1u-mRNA by luciferase reporter gene assay

[27] = biological target: Dual specificity tyrosine-phosphorylation-regulated kinase 2 (Homo sapiens) (UniProt Q92630); assay: Inhibition of recombinant human GST-tagged DYRK2 at 1 uM by kinomescan assay relative to control
[28] = biological target: Homeodomain-interacting protein kinase 1 (Homo sapiens) (UniProt Q86Z02); assay: Inhibition of recombinant human GST-tagged HIPK1 expressed in baculovirus expression system at 1 uM by kinomescan assay relative to control
[29] = biological target: T1, Serine/threonine-protein kinase/endoribonuclease IRE1; assay: Inhibition of dephosphorylated IRE1alpha (G547 to L977 residues) (unknown origin) -dependent cleavage of FAM-labeled stem-loop RNA containing the XBP1 cleavage site preincubated for 30 mins followed by RNA XBP1 substrate addition and measured after 15 mins by FRET assay
Target sequence in this assay (O75460 whole entry, the tested form may be a part): as above

[30] = biological target: Platelet-derived growth factor receptor alpha (Homo sapiens) (UniProt P16234); assay: Inhibition of recombinant human GST-tagged PDGFRA expressed in baculovirus expression system at 1 uM by kinomescan assay relative to control
[31] = system: Receptor-type tyrosine-protein kinase FLT3 (Homo sapiens), P36888 [D835H]; assay: Inhibition of recombinant human His-tagged FLT3 D835H mutant expressed in baculovirus expression system at 1 uM by kinomescan assay relative to control
[32] = biological target: Homeodomain-interacting protein kinase 3 (Homo sapiens) (UniProt Q9H422); assay: Inhibition of recombinant human His-tagged HIPK3 expressed in baculovirus expression system at 1 uM by kinomescan assay relative to control
[33] = system: Mast/stem cell growth factor receptor Kit (Homo sapiens), P10721 [V559D]; assay: Inhibition of recombinant human His-tagged KIT V559D mutant expressed in baculovirus expression system at 1 uM by kinomescan assay relative to control
Chain of Mast/stem cell growth factor receptor Kit (Homo sapiens), P10721 [V559D] (P10721 whole entry V559D): as the sequence (P10721 whole entry L576P) above, with V559D, P576L counted along it

[34] = biological target: Homeodomain-interacting protein kinase 4 (Homo sapiens) (UniProt Q8NE63); assay: Inhibition of recombinant human His-tagged HIPK4 expressed in baculovirus expression system at 1 uM by kinomescan assay relative to control
[35] = biological target: Dual specificity protein kinase CLK2 (Homo sapiens) (UniProt P49760); assay: Inhibition of recombinant human GST-tagged CLK2 expressed in baculovirus expression system at 1 uM by kinomescan assay relative to control
Chain of Dual specificity protein kinase CLK2 (Homo sapiens) (P49760 whole entry, looked up): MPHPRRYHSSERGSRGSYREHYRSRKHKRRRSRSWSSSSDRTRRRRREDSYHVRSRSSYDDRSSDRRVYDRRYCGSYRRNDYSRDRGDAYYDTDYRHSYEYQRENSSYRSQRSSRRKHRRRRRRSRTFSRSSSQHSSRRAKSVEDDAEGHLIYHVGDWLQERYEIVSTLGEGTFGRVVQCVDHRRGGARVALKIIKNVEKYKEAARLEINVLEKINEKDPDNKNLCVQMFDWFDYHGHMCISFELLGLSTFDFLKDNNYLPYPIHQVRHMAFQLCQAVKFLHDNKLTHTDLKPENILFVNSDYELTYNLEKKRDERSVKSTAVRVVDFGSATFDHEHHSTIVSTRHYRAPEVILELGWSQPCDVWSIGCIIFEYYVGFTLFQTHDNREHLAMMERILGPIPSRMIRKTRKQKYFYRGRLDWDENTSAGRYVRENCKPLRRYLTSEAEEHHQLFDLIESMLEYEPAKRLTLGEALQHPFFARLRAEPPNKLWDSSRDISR

[36] = biological target: Cyclin-dependent kinase 17 (Homo sapiens) (UniProt Q00537); assay: Inhibition of recombinant human GST-tagged PCTK2 expressed in baculovirus expression system at 1 uM by kinomescan assay relative to control
[37] = system: Receptor-type tyrosine-protein kinase FLT3 (Homo sapiens), P36888 [D835Y]; assay: Inhibition of recombinant human His-tagged FLT3 D835Y mutant expressed in baculovirus expression system at 1 uM by kinomescan assay relative to control
[38] = biological target: Platelet-derived growth factor receptor beta (Homo sapiens) (UniProt P09619); assay: Inhibition of recombinant human His-tagged PDGFRB expressed in baculovirus expression system at 1 uM by kinomescan assay relative to control
[39] = system: Receptor-type tyrosine-protein kinase FLT3 (Homo sapiens), P36888 [K663Q]; assay: Inhibition of recombinant human His-tagged FLT3 K663Q mutant expressed in baculovirus expression system at 1 uM by kinomescan assay relative to control

## Clc1cc(NC2CCOCC2)c2ncc(-c3ccc4[nH]ncc4c3)n2n1
physchem
  solubility kinetic: 2.2 µM (≈ 0.811 µg/mL)

## CN(c1ccccc1)c1nc2cc(-c3cnc4c(NCC5CC5)cc(Cl)nn34)ccc2[nH]1
[1]
  IC50: > 10000 nM
[2]
  IC50: > 10000 nM

## Cn1ncc2cc(-c3cnc4c(NCC5CC5)cc(Cl)nn34)ccc21
[1]
  IC50: > 10000 nM
[2]
  IC50: > 10000 nM

## CN(c1cc(Cl)nn2c(-c3ccc4[nH]ncc4c3)cnc12)[C@H]1CC[C@H](N)CC1
[1]
  IC50: > 10000 nM
[2]
  IC50: > 10000 nM

## Cn1c(Nc2ccccc2)nc2cc(-c3cnc4c(NCC5CC5)cc(Cl)nn34)ccc21
[1]
  IC50: > 10000 nM
[2]
  IC50: > 10000 nM

## Clc1cc(NCC2CC2)c2ncc(-c3ccc4[nH]c(Nc5ccccc5)nc4c3)n2n1
[3]
  logD: 4.1
physchem
  solubility kinetic: 2.9 µM (≈ 1.25 µg/mL)

## O=C(CN1CCOCC1)N[C@H]1CC[C@H](Nc2cc(Cl)nn3c(-c4ccc5[nH]ncc5c4)cnc23)CC1
[4]
  inhibition: > 90%
[5]
  inhibition: > 90%
[6]
  inhibition: > 90%
[7]
  inhibition: > 90%
[8]
  inhibition: > 90%
[9]
  inhibition: > 90%
[10]
  inhibition: > 90%
Homo sapiens
  inhibition: > 90%
[11]
  inhibition: > 90%
[1]
  IC50: 87 nM
[2]
  IC50: 240 nM
[12]
  inhibition: > 90%
[13]
  IC50: 680 to 1630 nM
[14]
  inhibition: > 90%
[15]
  inhibition: > 90%
[16]
  inhibition: > 90%
[17]
  inhibition: > 90%
[18]
  inhibition: > 90%
[19]
  IC50: 1880 nM
[20]
  inhibition: Active
[21]
  inhibition: > 90%
[22]
  inhibition: > 90%
[23]
  inhibition: > 90%
[24]
  inhibition: > 90%
[25]
  inhibition: > 90%
[26]
  IC50: 1120 nM
HEK293
  EC50: > 49000 nM
[27]
  inhibition: > 90%
[28]
  inhibition: > 90%
[29]
  IC50: 27 nM
[30]
  inhibition: > 90%
[31]
  inhibition: > 90%
[32]
  inhibition: > 90%
[33]
  inhibition: > 90%
[34]
  inhibition: > 90%
[35]
  inhibition: > 90%

## Clc1cc(NC2CCOCC2)c2ncc(-c3ccc4[nH]c(Nc5ccccc5)nc4c3)n2n1
physchem
  solubility kinetic: 2.4 µM (≈ 1.1 µg/mL)

## Clc1cc(NCC2CC2)c2ncc(-c3ccc4[nH]ncc4c3)n2n1
[36]
  inhibition: > 90%
[37]
  inhibition: > 90%
[38]
  inhibition: > 90%
[6]
  inhibition: > 90%
[7]
  inhibition: > 90%
[8]
  inhibition: > 90%
[10]
  inhibition: > 90%
[1]
  IC50: 1600 nM
[2]
  IC50: 303 nM
[18]
  inhibition: > 90%
[3]
  logD: 3.4
[21]
  inhibition: > 90%
[23]
  inhibition: > 90%
[24]
  inhibition: > 90%
[25]
  inhibition: > 90%
[26]
  IC50: 4200 nM
HEK293
  EC50: > 49000 nM
[39]
  inhibition: > 90%
[29]
  IC50: 8900 nM
physchem
  solubility kinetic: 0.8 µM (≈ 0.271 µg/mL)
[33]
  inhibition: > 90%
[34]
  inhibition: > 90%
[35]
  inhibition: > 90%

## CN1CCC(CNc2cc(Cl)nn3c(-c4cc5nc(Nc6ccccc6)[nH]c5cc4F)cnc23)CC1
[36]
  inhibition: > 90%
[1]
  IC50: 270 nM
[2]
  IC50: 160 nM
[13]
  IC50: 680 to 1630 nM
[19]
  IC50: 740 nM
[26]
  IC50: 710 nM
HEK293
  EC50: 9000 nM
[29]
  IC50: 80 nM

## Clc1cc(NCC2CC2)c2ncc(-c3ccc4cn[nH]c4c3)n2n1
[1]
  IC50: > 10000 nM
[2]
  IC50: > 10000 nM

## CN1CCC(Nc2cc(Cl)nn3c(-c4ccc5[nH]c(Nc6ccccc6)nc5c4)cnc23)CC1
[3]
  logD: 2.7
physchem
  solubility kinetic: 41 µM (≈ 19.4 µg/mL)

## CN1CCC(Nc2cc(Cl)nn3c(-c4ccc5[nH]ncc5c4)cnc23)CC1
[3]
  logD: 1.8
physchem
  solubility kinetic: 58 µM (≈ 22.1 µg/mL)
